Assay results from patent US9132099B2, “Medical implants and methods for regulating the tissue response to vascular closure devices” (Vascular Therapies LLC, priority 2001, dated 2015).
Starred links: 1 amine or outer side, 2 acyl side, 3 side chain; linkers in the order of their positions; H or OH if unused. Positions of bridges follow the written chain, without caps; N, C: chain ends. Non-standard residues stand in square brackets, D forms with d. Residues, ends and D or L forms follow the SMILES beside them. Chains are numbered I, II in the order given. Actinocin(9to1) = Cc1c2oc3c(C)ccc(C(=O)[*:1])c3nc-2c(C(=O)[*:2])c(N)c1=O; NMeV = CN[C@H](C(=O)O)C(C)C; Sar = CNCC(=O)O

How the values were obtained:
[1] = system: Elastase; experiment: Elastase activity in culture media, chromogenic substrate hydrolysis; type: biochemical; conditions: aliquots of media, five days, plain matrix = 100
Description: (§1) Prefabricated collagen matrices were placed in different antiproliferative drug solutions until complete saturation occurred. […] The collagen matrices were saturated with these compounds at a concentration of 25 μg/ml lyophilized, washed with 0.066 M phosphate buffer of pH 7.4 at 37° C. for 24 hours and cut in the shape of a disc with density of compound of about 5 μg/cm^2. After washing, sterile discs 15 mm in diameter were placed in a 24-well culture plate, and cells were seeded at a density of 5,000/cm^2. Five days later, cell number was counted and enzymatic activity evaluated in the aliquots of media by chromogenic substrate hydrolysis and spectrophotometry.

[2] = system: smooth muscle cells; experiment: Growth of smooth muscle cells seeded on collagen matrices; type: cell-based; conditions: with changes of media, 7 days observation
Description: To evaluate this parameter, smooth muscle cells at a density of 5,000 cells/cm^2 are seeded onto control tissue culture surface and testing matrices.

[3] = system: SMC; experiment: Smooth muscle cell inhibition on drug-saturated collagen matrix discs; type: cell-based; conditions: collagen matrix disc, compound about 5 μg/cm^2, cells counted five days later
Description: as §1

[4] = system: Collagenase; experiment: Collagenase activity in culture media, chromogenic substrate hydrolysis; type: biochemical; conditions: aliquots of media, five days, plain matrix = 100
Description: as §1, with “spectrophotometry. Among the tested agents in this comparative in vitro test, paclitaxel and rapamycin (sirolimus) performed similarly.” for “spectrophotometry.”

[5] = system: Fibroblast; experiment: Fibroblast inhibition on drug-saturated collagen matrix discs; type: cell-based; conditions: collagen matrix disc, compound about 5 μg/cm^2, cells counted five days later
Description: as §1

[6] = system: Human Endothelial Cells; experiment: [3H]-thymidine uptake assay, human endothelial cells; type: cell-based
Description: (§2) Human smooth muscle cells and endothelial cells (Cambrex Corp., formerly Clonetics Corp., East Rutherford, N.J.) were seeded (100,000 cells) in 24-well plates overnight. Both cell types were grown and maintained in Opti-MEM (Invitrogen, Carlsbad, Calif.) and 5% fetal bovine serum at 37° C. in a 5% carbon dioxide and 95% atmospheric air. […] Each cell type was allowed to grow for […], last four hours in the presence of [^3H]-thymidine.
(§3) Proliferation of cells was quantified as new DNA synthesis using [^3H]-thymidine uptake assay. After 72 hours of culture, cells were washed twice with cold phosphate buffered saline (PBS), and 1 ml of methanol was added to the contents of each well. The plates were kept at 4° C. for 60 minutes, the cells then washed once with cold PBS, and 500 μl of 0.2 m M NaOH was added to each well, and the plates kept at 4° C. for 30 minutes. The contents of each well were transferred into scintillation vials, and liquid scintillation fluid was added to quantify radioactivity using a liquid scintillation counter and the results expressed as counts per minute. Results are shown in Tables 12 and 13 and corresponding FIGS. 16 and 17, respectively.

[7] = system: Human Smooth Muscle Cells; experiment: [3H]-thymidine uptake assay, human smooth muscle cells; type: cell-based
Description: as §2, §3

[8] = system: smooth muscle cell; experiment: Heparin inhibition of smooth muscle cell proliferation; type: cell-based
Source text: In addition, diffusion of heparin from the sleeve can prevent thrombotic events on the inner surface of the shunt and damaged vessel wall for longer periods of time. Furthermore, the concentration of soluble heparin can be increased up to 20,000 U/cm^2 without changing the mechanical characteristics of the matrix. Therefore, anti-smooth muscle cell proliferation as well as antithrombotic effect can be prolonged.

[9] = In vitro elution of heparin from collagen-fibrin sleeve with rapamycin and heparin; type: physicochemical; conditions: for Eluted Heparin Mass: buffer replenished each day
Source text: Combining macro- and micro-porosity may increase capacity of the device. Collagen and fibrin matrices were mixed to obtain such a combination. In addition, good mechanical characteristics of collagen improved stability of fibrin.
The collagen fibrin sheaths loaded with medicine (thickness 2 mm) were formed as tubular structures and externally crosslinked using high a concentration of glutaraldehyde (25%) for one minute. This sleeve was made planar on ten occasions, and the spiral shape was restored each time. […] In vitro elution of heparin continues for seven days. Heparin concentration was measured as in Example 10. Buffer for the dilution was replenished each day.

[10] = In vitro elution of dexamethasone from collagen matrix; conditions: by HPLC
[11] = system: PTFE vascular graft AV loop, venous anastomosis; experiment: Porcine PTFE arterio-venous graft model with perivascular rapamycin collagen sleeve; type: in vivo; conditions: pigs
Description: A proof of principle study was performed using a porcine model. A total of six pigs were studied, two as controls and four as treated. A 6 mm PTFE vascular graft was anastomosed between the carotid artery on one side and the contralateral jugular vein. This created an arterio-venous (AV) loop that is similar in construction to the human hemodialysis access loop.
The animals were euthanized and the relevant segments dissected. […] Tissues from treated and untreated animals were obtained, and RNA was prepared and reverse transcribed to cDNA, which was amplified for housekeeping gene b-actin and p21 by PCR.

[12] = system: PTFE A-V graft, venous anastamosis; experiment: PTFE A-V graft study, histological scoring of graft explants; type: in vivo
Source text: A 6.0 mm PTFE graft was anastamosed between the carotid artery and the jugular vein. A total of 19 animals were utilized for this study. At the time of surgical construction of the A-V graft, collagen matrix with or without the drug was implanted at the site of venous anastamosis. Five animals served as controls (Group A, plain collagen matrix, no drug); the remaining 14 animals received treatment. They were divided into two equal groups (B and C) of seven animals each. […] Animals (n=13) were euthanized after 1 month. Tissues were formalin fixed and sent for histology.
Histological assessment of graft explants was performed by examining the following components: (1) the venous anastamotic site; (a) luminal and (b) adventitial surfaces, (2) the venous end away from the anastamosis; (c) luminal and (d) adventitial surfaces and (3) the PTFE graft; (e) luminal and (f) abluminal surfaces away from the anastamosis (FIG. 2). The following parameters were evaluated: intimal thickening, inflammation, thrombus, fibrosis, hemorrhage/fibrin and calcification or any other pathological changes observed. Histological evaluation was scored on a 0 through 4 scale, where 0=no significant change, 1=minimal, 2=mild, 3=moderate and 4=severe.
P-values obtained from semiquantitative analysis of histological findings using ANOVA (t-test unpaired).

[13] = Rate of drug release from collagen matrix in vitro, batch assay; type: physicochemical; conditions: collagen matrix saturated with the drug
Description: Aliquots are collected at various time intervals from the wells. A combination of dispersed and conjugated forms is also prepared. […] The samples are placed in wells and 1 ml of elution media containing serum are added. Aliquots are taken every hour.
These measurements are made using batch assay and, therefore, represent release rates at 0 ml/min flow rate. The results are tabulated in Table 7 and graphically illustrated in FIG. 14. Concentrations of the antiproliferative drug are in μg/ml.

[14] = system: smooth muscle cell; experiment: Inhibitory concentrations for smooth muscle cell in culture media

| Compound | Elastase Activity % [1] | SMC Inhibition % [3] | Collagenase Activity % [4] | Fibroblast Inhibition % [5] | effect on proliferation (new DNA synthesis) [6] | effect on proliferation (new DNA synthesis) [7] | other results |
| --- | --- | --- | --- | --- | --- | --- | --- |
| Cc1c2oc3c(C)ccc(C(=O)N[C@@H]4C(=O)N[C@H](C(C)C)C(=O)N5CCC[C@H]5C(=O)N(C)CC(=O)N(C)[C@@H](C(C)C)C(=O)O[C@@H]4C)c3nc-2c(C(=O)N[C@@H]2C(=O)N[C@H](C(C)C)C(=O)N3CCC[C@H]3C(=O)N(C)CC(=O)N(C)[C@@H](C(C)C)C(=O)O[C@@H]2C)c(N)c1=O [Actinomycin D] (I: T[dV]P[Sar][NMeV] / II: T[dV]P[Sar][NMeV]; ester I:1-I:C, II:1-II:C; linker I:N-II:N via Actinocin(9to1)) | 84 ± 11% | 44 ± 11% | 55 ± 9% | 35 ± 8% |  |  | duration of suppression of cell growth [2]: suppresses cell growth for only a short period of time |
| CN(C)[C@@H]1C(O)=C(C(N)=O)C(=O)[C@@]2(O)C(O)=C3C(=O)c4c(O)cccc4[C@@](C)(O)[C@H]3C[C@@H]12 [Tetracycline] |  | 11 ± 8% |  | 13 ± 5% |  |  |  |
| C=CC[C@@H]1/C=C(\C)C[C@H](C)C[C@H](OC)[C@H]2O[C@@](O)(C(=O)C(=O)N3CCCC[C@H]3C(=O)O[C@H](/C(C)=C/[C@@H]3CC[C@@H](O)[C@H](OC)C3)[C@H](C)[C@@H](O)CC1=O)[C@H](C)C[C@@H]2OC [Tacrolimus] |  |  |  |  | sparing endothelial cells | preferentially inhibit new DNA synthesis in human smooth muscle cells |  |
| Heparin |  |  |  |  |  |  | concentration that effectively inhibits smooth muscle cell proliferation [8]: about 100 u/ml; duration of in vitro elution of heparin [9]: seven; Eluted Heparin Mass ([9]; Time 0 days): 0 u/ml; Eluted Heparin Mass ([9]; Time 1 days): 341 u/ml; Eluted Heparin Mass ([9]; Time 2 days): 275 u/ml; Eluted Heparin Mass ([9]; Time 3 days): 188 u/ml; Eluted Heparin Mass ([9]; Time 4 days): 103 u/ml; Eluted Heparin Mass ([9]; Time 5 days): 57 u/ml; Eluted Heparin Mass ([9]; Time 6 days): 24 u/ml; Eluted Heparin Mass ([9]; Time 7 days): 8 u/ml; time for which eluted heparin can significantly inhibit smooth muscle cell proliferation ([9]; from the elution profile and about 100 u/ml): at least four |
| C[C@@H]1C[C@H]2[C@@H]3CCC4=CC(=O)C=C[C@]4(C)[C@@]3(F)[C@@H](O)C[C@]2(C)[C@@]1(O)C(=O)CO [Dexamethasone] |  |  |  |  |  |  | Chemical stability through sheet formation, drying storage, and elution process [10]: confirmed |
| CN(Cc1cnc2nc(N)nc(N)c2n1)c1ccc(C(=O)N[C@@H](CCC(=O)O)C(=O)O)cc1 [Methotrexate] | 14 ± 3% | 32 ± 9% | 23 ± 12% | 28 ± 6% |  |  |  |
| CO[C@H]1C[C@@H]2CC[C@@H](C)[C@@](O)(O2)C(=O)C(=O)N2CCCC[C@H]2C(=O)O[C@H]([C@H](C)C[C@@H]2CC[C@@H](O)[C@H](OC)C2)CC(=O)[C@H](C)/C=C(\C)[C@@H](O)[C@@H](OC)C(=O)[C@H](C)C[C@H](C)/C=C/C=C/C=C/1C [Rapamycin, (3S,6R,7E,9R,10R,12R,14S,15E,17E,19E,21S,23S,26R,27R,34aS)-9,10,12,13,14,21,22,23,24,25,26,27,32,33,34,34a-hexadecahydro-9,27-dihydroxy-3-[(1R)-2[(1S,3R,4R)-4-hydroxy-3-methoxycyclohexyl]-1-methylethyl]10,21-dimethoxy-6,8,12,14,20,26-hexamethyl-23,27-epoxy-3H-pyrido[2,1-c][1,4] oxaazacyclohentriacontine-1,5,11,28,29 (4H,6H,31H)-pentone] |  | 94 ± 5% | 137 ± 8% | 90 ± 12% | inhibit proliferation | inhibit proliferation | Expression of p21 mRNA in venous tissue at the perianastamotic site ([11]; 30 days, PCR, not in controls): observed; neointimal hyperplasia at venous anastomosis ([11]; collagen sleeve approximately 500 μg/cm^2, 30 days): minimal to absent; luminal patency of the vein and the graft ([11]; collagen sleeve approximately 500 μg/cm^2, 30 days, vs controls): significantly higher luminal patency; Collagen degradation ([12]; Dose 2 compared with the control group): significant; degree of fibrosis ([12]; control group vs. treatment groups): significant difference; degree of inflammation ([12]; treated vs controls): no statistical difference; duration of suppression of cell growth [2]: suppression of cell growth continued throughout the observation period; time of peak release from saturated collagen matrix [13]: about seven; Inhibitory concentrations for smooth muscle cell [14]: 0.001 to 0.005 µg/mL |
| CC(=O)O[C@H]1C(=O)[C@@]2(C)[C@H]([C@H](OC(=O)c3ccccc3)[C@]3(O)C[C@H](OC(=O)[C@H](O)[C@@H](NC(=O)c4ccccc4)c4ccccc4)C(C)=C1C3(C)C)[C@]1(OC(C)=O)CO[C@@H]1C[C@@H]2O [Paclitaxel] | 90 ± 4% | 88 ± 6% | 98 ± 5% | 62 ± 11% | inhibit proliferation | inhibit proliferation |  |
